# Measurements from patent publication US20210387952A1, “SOLID STATE FORMS OF D[…] PROCESS FOR PREPARATION THEREOF” (TEVA PHARMACEUTICALS INTERNATIONAL GMBH, priority 2018, published 2021).
# Assay: Solid state (polymorphic and chemical) stability on storage
smiles,measurement,setting,value
"O=C(O)CNC(=O)c1c(O)n(C2CCCCC2)c(=O)n(C2CCCCC2)c1=O [Form 3, 2-[(1,3-dicyclohexyl-2,4,6-trioxo-1,3-diazinane-5-carbonyl)amino]acetic acid]",polymorphic and chemical stability,crystalline solid form,polymorphically and chemically stable
same,storage time over which the form is stable,stored in closed bottles,at least 2 weeks
